Measured values reported in patent publication US20020137929A1, “1 - (3-heterocyclylphenyl) isothiourea, -isourea, -guanidine and -amidine herbicidal agents” (Intellectual Property Department, BASF Aktiengesellschaft, priority 1998, published 2002).

Columns and labels:
AMBEL (Ragweed, Common) = assay: Postemergence herbicidal evaluation; format: in vivo, Ambrosia artemisifolia; conditions: postemergence
Method in brief: (§1)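 Herbicidal effect was judged by eye on a 0–9 scale covering stand, vigor, deformity, size and chlorosis, compared with controls, four to five weeks after seedlings about two weeks old were sprayed (40 psi, ~0.0156–0.500 kg/ha).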

CASOB (Sicklepod) = assay: Preemergence herbicidal evaluation; format: in vivo, Cassia obtusifolia; conditions: rated 4-5 weeks after treatment, rating scale 0-9
Method in brief: (§2)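 Steps: mix seeds into potting soil; plant atop ~1 inch soil; spray compound in aqueous acetone (~0.0156-0.500 kg/ha equivalent); maintain in greenhouse with watering; rate visually 0-9 versus control at 4-5 weeks.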

SETVI (Foxtail, Green) [1] = assay: Postemergence herbicidal evaluation; format: in vivo, Setaria viridis; conditions: postemergence
Method in brief: as §1

SETVI (Foxtail, Green) [2] = assay: Preemergence herbicidal evaluation; format: in vivo, Setaria viridis; conditions: rated 4-5 weeks after treatment, rating scale 0-9
Method in brief: as §2

[3] = system: SAGPY (Arrowhead (Pygmaea)); assay: Preemergence weed control under flooded paddy conditions; format: in vivo, Sagittaria pygmaea; conditions: rated 3-4 weeks after treatment
Method in brief: (§3)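 Herbicidal effect is scored visually on a 0-9 scale against an untreated control, three to four weeks after compounds are pipetted into the flood water (1.5 to 3 cm deep) over seeds planted in silt loam at 0.5 cm depth. Rates: about 0.0313 to 0.500 kg/ha.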

[4] = system: TRZAWR (Wheat, Winter, cv Riband); assay: Postemergence herbicidal evaluation; format: in vivo, Triticum aestivum; conditions: postemergence
Method in brief: as §1

ABUTH (Velvetleaf) [5] = assay: Preemergence herbicidal evaluation; format: in vivo, Abutilon theophrasti; conditions: rated 4-5 weeks after treatment, rating scale 0-9
Method in brief: as §2

ORYSAT (Rice, Tebonnet) = assay: Postemergence herbicidal evaluation; format: in vivo, Oryza sativa, (L.) Tebonnet; conditions: postemergence
Method in brief: as §1

ABUTH (Velvetleaf) [6] = assay: Postemergence herbicidal evaluation; format: in vivo, Abutilon theophrasti; conditions: postemergence
Method in brief: as §1

ECHCG (Barnyardgrass) = assay: Postemergence herbicidal evaluation; format: in vivo, Echinochloa crus-galli; conditions: postemergence
Method in brief: as §1

[7] = system: GLXMAW (Soybean, Williams); assay: Postemergence herbicidal evaluation; format: in vivo, Glycine max, (L.) Merr. cv Williams; conditions: postemergence
Method in brief: as §1

MOOVA (Monochoria) = assay: Preemergence weed control under flooded paddy conditions; format: in vivo, Monochoria vaginalis; conditions: rated 3-4 weeks after treatment
Method in brief: as §3

## Cn1c(C(F)(F)F)cc(=O)n(-c2cc(N=C3SCC(=O)N3Cc3ccc(Cl)c(Cl)c3)c(Cl)cc2F)c1=O [Compound 144, 3-{4-Chloro-5-{[3-(3,4-dichlorobenzyl)-4-oxo-2-thiazolidinylidene]amino}-2-fluorophenyl}-1-methyl-6-(trifluoromethyl)-2,4(1H,3H)-pyrimidinedione]
AMBEL (Ragweed, Common); rate 0.0156 kg/ha
  Herbicidal rating AMBEL: 7.0
AMBEL (Ragweed, Common); rate 0.0313 kg/ha
  Herbicidal rating AMBEL: 9.0
AMBEL (Ragweed, Common); rate 0.0625 kg/ha
  Herbicidal rating AMBEL: 9.0
CASOB (Sicklepod); rate 0.0156 kg/ha
  Preemergence herbicidal rating CASOB: 0.0
CASOB (Sicklepod); rate 0.0313 kg/ha
  Preemergence herbicidal rating CASOB: 0.0
CASOB (Sicklepod); rate 0.0625 kg/ha
  Preemergence herbicidal rating CASOB: 0.0
CASOB (Sicklepod); rate 0.1250 kg/ha
  Preemergence herbicidal rating CASOB: 1.0
CASOB (Sicklepod); rate 0.2500 kg/ha
  Preemergence herbicidal rating CASOB: 2.0
SETVI (Foxtail, Green) [1]; rate 0.0156 kg/ha
  Herbicidal rating SETVI: 3.0
SETVI (Foxtail, Green) [1]; rate 0.0313 kg/ha
  Herbicidal rating SETVI: 3.0
SETVI (Foxtail, Green) [1]; rate 0.0625 kg/ha
  Herbicidal rating SETVI: 6.0
SETVI (Foxtail, Green) [2]; rate 0.0156 kg/ha
  Preemergence herbicidal rating SETVI: 0.0
SETVI (Foxtail, Green) [2]; rate 0.0313 kg/ha
  Preemergence herbicidal rating SETVI: 0.0
SETVI (Foxtail, Green) [2]; rate 0.0625 kg/ha
  Preemergence herbicidal rating SETVI: 2.0
SETVI (Foxtail, Green) [2]; rate 0.1250 kg/ha
  Preemergence herbicidal rating SETVI: 9.0
SETVI (Foxtail, Green) [2]; rate 0.2500 kg/ha
  Preemergence herbicidal rating SETVI: 9.0
[3]; 0.0313 kg/ha
  herbicidal effect rating, SAGPY: 0.0
[3]; 0.0625 kg/ha
  herbicidal effect rating, SAGPY: 0.0
[3]; 0.1250 kg/ha
  herbicidal effect rating, SAGPY: 2.0
[3]; 0.2500 kg/ha
  herbicidal effect rating, SAGPY: 4.0
[4]; rate 0.0156 kg/ha
  Herbicidal rating TRZAWR: 3.5
[4]; rate 0.0313 kg/ha
  Herbicidal rating TRZAWR: 3.5
[4]; rate 0.0625 kg/ha
  Herbicidal rating TRZAWR: 4.0
ABUTH (Velvetleaf) [5]; rate 0.0156 kg/ha
  Preemergence herbicidal rating ABUTH: 0.0
ABUTH (Velvetleaf) [5]; rate 0.0313 kg/ha
  Preemergence herbicidal rating ABUTH: 0.0
ABUTH (Velvetleaf) [5]; rate 0.0625 kg/ha
  Preemergence herbicidal rating ABUTH: 0.0
ABUTH (Velvetleaf) [5]; rate 0.1250 kg/ha
  Preemergence herbicidal rating ABUTH: 9.0
ABUTH (Velvetleaf) [5]; rate 0.2500 kg/ha
  Preemergence herbicidal rating ABUTH: 9.0
ORYSAT (Rice, Tebonnet); rate 0.0156 kg/ha
  Herbicidal rating ORYSAT: 2.5
ORYSAT (Rice, Tebonnet); rate 0.0313 kg/ha
  Herbicidal rating ORYSAT: 2.5
ORYSAT (Rice, Tebonnet); rate 0.0625 kg/ha
  Herbicidal rating ORYSAT: 3.0
ABUTH (Velvetleaf) [6]; rate 0.0156 kg/ha
  Herbicidal rating ABUTH: 9.0
ABUTH (Velvetleaf) [6]; rate 0.0313 kg/ha
  Herbicidal rating ABUTH: 9.0
ABUTH (Velvetleaf) [6]; rate 0.0625 kg/ha
  Herbicidal rating ABUTH: 9.0
ECHCG (Barnyardgrass); rate 0.0156 kg/ha
  Herbicidal rating ECHCG: 2.0
ECHCG (Barnyardgrass); rate 0.0313 kg/ha
  Herbicidal rating ECHCG: 3.0
ECHCG (Barnyardgrass); rate 0.0625 kg/ha
  Herbicidal rating ECHCG: 4.0
[7]; rate 0.0156 kg/ha
  Herbicidal rating GLXMAW: 5.0
[7]; rate 0.0313 kg/ha
  Herbicidal rating GLXMAW: 5.5
[7]; rate 0.0625 kg/ha
  Herbicidal rating GLXMAW: 6.5
MOOVA (Monochoria); 0.0313 kg/ha
  herbicidal effect rating, MOOVA: 6.0
MOOVA (Monochoria); 0.0625 kg/ha
  herbicidal effect rating, MOOVA: 9.0
MOOVA (Monochoria); 0.1250 kg/ha
  herbicidal effect rating, MOOVA: 9.0
MOOVA (Monochoria); 0.2500 kg/ha
  herbicidal effect rating, MOOVA: 9.0

## CCOC(=O)CN1C(=O)C(Br)SC1=Nc1cc(-n2c(=O)cc(C(F)(F)F)n(C)c2=O)c(F)cc1Cl (stereo not shown) [Compound 153, Ethyl 5-bromo-2-[{2-chloro-5-[3,6-dihydro-3-methyl-2,6-dioxo-4-(trifluoromethyl)-1(2H)-pyrimidinyl]-4-fluorophenyl}imino}-4-oxo-3-thiazolidineacetate]
AMBEL (Ragweed, Common); rate 0.0156 kg/ha
  Herbicidal rating AMBEL: 0.0
AMBEL (Ragweed, Common); rate 0.0313 kg/ha
  Herbicidal rating AMBEL: 1.0
AMBEL (Ragweed, Common); rate 0.0625 kg/ha
  Herbicidal rating AMBEL: 1.0
CASOB (Sicklepod); rate 0.1250 kg/ha
  Preemergence herbicidal rating CASOB: 0.0
CASOB (Sicklepod); rate 0.2500 kg/ha
  Preemergence herbicidal rating CASOB: 0.0
SETVI (Foxtail, Green) [1]; rate 0.0156 kg/ha
  Herbicidal rating SETVI: 0.0
SETVI (Foxtail, Green) [1]; rate 0.0313 kg/ha
  Herbicidal rating SETVI: 0.0
SETVI (Foxtail, Green) [1]; rate 0.0625 kg/ha
  Herbicidal rating SETVI: 0.0
SETVI (Foxtail, Green) [2]; rate 0.1250 kg/ha
  Preemergence herbicidal rating SETVI: 1.0
SETVI (Foxtail, Green) [2]; rate 0.2500 kg/ha
  Preemergence herbicidal rating SETVI: 0.0
[3]; 0.0625 kg/ha
  herbicidal effect rating, SAGPY: 0.0
[3]; 0.1250 kg/ha
  herbicidal effect rating, SAGPY: 0.0
[3]; 0.2500 kg/ha
  herbicidal effect rating, SAGPY: 0.0
[4]; rate 0.0156 kg/ha
  Herbicidal rating TRZAWR: 2.0
[4]; rate 0.0313 kg/ha
  Herbicidal rating TRZAWR: 2.0
[4]; rate 0.0625 kg/ha
  Herbicidal rating TRZAWR: 3.0
ABUTH (Velvetleaf) [5]; rate 0.1250 kg/ha
  Preemergence herbicidal rating ABUTH: 0.0
ABUTH (Velvetleaf) [5]; rate 0.2500 kg/ha
  Preemergence herbicidal rating ABUTH: 2.0
ORYSAT (Rice, Tebonnet); rate 0.0156 kg/ha
  Herbicidal rating ORYSAT: 1.5
ORYSAT (Rice, Tebonnet); rate 0.0313 kg/ha
  Herbicidal rating ORYSAT: 1.5
ORYSAT (Rice, Tebonnet); rate 0.0625 kg/ha
  Herbicidal rating ORYSAT: 1.5
ABUTH (Velvetleaf) [6]; rate 0.0156 kg/ha
  Herbicidal rating ABUTH: 1.0
ABUTH (Velvetleaf) [6]; rate 0.0313 kg/ha
  Herbicidal rating ABUTH: 1.0
ABUTH (Velvetleaf) [6]; rate 0.0625 kg/ha
  Herbicidal rating ABUTH: 5.0
ECHCG (Barnyardgrass); rate 0.0156 kg/ha
  Herbicidal rating ECHCG: 0.0
ECHCG (Barnyardgrass); rate 0.0313 kg/ha
  Herbicidal rating ECHCG: 0.0
ECHCG (Barnyardgrass); rate 0.0625 kg/ha
  Herbicidal rating ECHCG: 1.0
[7]; rate 0.0156 kg/ha
  Herbicidal rating GLXMAW: 3.5
[7]; rate 0.0313 kg/ha
  Herbicidal rating GLXMAW: 4.0
[7]; rate 0.0625 kg/ha
  Herbicidal rating GLXMAW: 4.0
MOOVA (Monochoria); 0.0625 kg/ha
  herbicidal effect rating, MOOVA: 3.0
MOOVA (Monochoria); 0.1250 kg/ha
  herbicidal effect rating, MOOVA: 4.0
MOOVA (Monochoria); 0.2500 kg/ha
  herbicidal effect rating, MOOVA: 5.0

## Cc1ccc(CN2C(=O)CSC2=Nc2cc(-n3c(=O)cc(C(F)(F)F)n(C)c3=O)c(F)cc2Cl)cc1Cl [Compound 149, 3-{4-Chloro-5-{[3-(3-chloro-4-methylbenzyl)-4-oxo-2-thiazolidinylidene]amino}-2-fluorophenyl}-1-methyl-6-(trifluoromethyl)-2,4(1H,3H)-pyrimidinedione]
AMBEL (Ragweed, Common); rate 0.0156 kg/ha
  Herbicidal rating AMBEL: 4.0
AMBEL (Ragweed, Common); rate 0.0313 kg/ha
  Herbicidal rating AMBEL: 9.0
AMBEL (Ragweed, Common); rate 0.0625 kg/ha
  Herbicidal rating AMBEL: 9.0
CASOB (Sicklepod); rate 0.1250 kg/ha
  Preemergence herbicidal rating CASOB: 0.0
CASOB (Sicklepod); rate 0.2500 kg/ha
  Preemergence herbicidal rating CASOB: 0.0
SETVI (Foxtail, Green) [1]; rate 0.0156 kg/ha
  Herbicidal rating SETVI: 0.0
SETVI (Foxtail, Green) [1]; rate 0.0313 kg/ha
  Herbicidal rating SETVI: 0.0
SETVI (Foxtail, Green) [1]; rate 0.0625 kg/ha
  Herbicidal rating SETVI: 0.0
SETVI (Foxtail, Green) [2]; rate 0.1250 kg/ha
  Preemergence herbicidal rating SETVI: 0.0
SETVI (Foxtail, Green) [2]; rate 0.2500 kg/ha
  Preemergence herbicidal rating SETVI: 0.0
[3]; 0.0313 kg/ha
  herbicidal effect rating, SAGPY: 0.0
[3]; 0.0625 kg/ha
  herbicidal effect rating, SAGPY: 2.0
[3]; 0.1250 kg/ha
  herbicidal effect rating, SAGPY: 3.0
[3]; 0.2500 kg/ha
  herbicidal effect rating, SAGPY: 3.0
[4]; rate 0.0156 kg/ha
  Herbicidal rating TRZAWR: 3.0
[4]; rate 0.0313 kg/ha
  Herbicidal rating TRZAWR: 3.5
[4]; rate 0.0625 kg/ha
  Herbicidal rating TRZAWR: 3.5
ABUTH (Velvetleaf) [5]; rate 0.1250 kg/ha
  Preemergence herbicidal rating ABUTH: 3.0
ABUTH (Velvetleaf) [5]; rate 0.2500 kg/ha
  Preemergence herbicidal rating ABUTH: 7.0
ORYSAT (Rice, Tebonnet); rate 0.0156 kg/ha
  Herbicidal rating ORYSAT: 0.5
ORYSAT (Rice, Tebonnet); rate 0.0313 kg/ha
  Herbicidal rating ORYSAT: 1.0
ORYSAT (Rice, Tebonnet); rate 0.0625 kg/ha
  Herbicidal rating ORYSAT: 1.0
ABUTH (Velvetleaf) [6]; rate 0.0156 kg/ha
  Herbicidal rating ABUTH: 4.0
ABUTH (Velvetleaf) [6]; rate 0.0313 kg/ha
  Herbicidal rating ABUTH: 8.0
ABUTH (Velvetleaf) [6]; rate 0.0625 kg/ha
  Herbicidal rating ABUTH: 9.0
ECHCG (Barnyardgrass); rate 0.0156 kg/ha
  Herbicidal rating ECHCG: 0.0
ECHCG (Barnyardgrass); rate 0.0313 kg/ha
  Herbicidal rating ECHCG: 0.0
ECHCG (Barnyardgrass); rate 0.0625 kg/ha
  Herbicidal rating ECHCG: 0.0
[7]; rate 0.0156 kg/ha
  Herbicidal rating GLXMAW: 4.0
[7]; rate 0.0313 kg/ha
  Herbicidal rating GLXMAW: 4.5
[7]; rate 0.0625 kg/ha
  Herbicidal rating GLXMAW: 4.5
MOOVA (Monochoria); 0.0313 kg/ha
  herbicidal effect rating, MOOVA: 5.0
MOOVA (Monochoria); 0.0625 kg/ha
  herbicidal effect rating, MOOVA: 7.0
MOOVA (Monochoria); 0.1250 kg/ha
  herbicidal effect rating, MOOVA: 7.0
MOOVA (Monochoria); 0.2500 kg/ha
  herbicidal effect rating, MOOVA: 7.0
